In PMC9122897, “SHR1032, a novel STING agonist, stimulates anti-tumor immunity and directly induces AML apoptosis” (Scientific Reports, 2022):

Key:
[1] = system: MC38 mouse syngeneic colorectal adenocarcinoma; assay: MC38 syngeneic tumor model; type: in vivo, C57BL/6 mouse
Method: Figure 3 Robust cytokine induction and antitumor effects in vivo. (a,b) C57BL/6 mice were inoculated with mouse MC38 colon cancer cells in the left flank. When tumor volumes were 100 mm^3, they received intratumoral (IT) dose of 100 µg of SHR1032 on day 1, 5, 8 and 12 or IT dose of 50 µg ADU-S100 on day 1, 5, and 8, or vehicle, respectively. (a) Tumor volume was measured at different time points. Results are shown as mean tumor volume ± sem. (n = 8 animals per group). (b) Mouse bodyweight was measured at different time points. (c–f) C57BL/6 mice were inoculated with mouse MC38 colon cancer cells in the left flank. When tumor volumes were 100 mm^3, they received one IT dose of 100 µg of SHR1032 or 50 µg ADU-S100, or vehicle. (c) IFNβ, (d) IL-6 and (e) TNFα from both tumor and plasma was measured by ELISA 4 h after. (f) SHR1032 compound concentration in tumors were measured.
(§1) Human and Cynomolgous PBMC’s were thawed and spun down in Lymphocyte media (ZENBIO) and resuspended in media to 1.5 x 10^6 cells/ml density. Mouse RAW 264.7 cells were detached from the flask and resuspended in media to 1.5 x 10^6 cells/ml density. Then, 100 µl of media containing the cells was added to each well of a 96-well plate containing compound in 50 µl of media. Plates were incubated for 5 h at 37 °C and supernatant was collected for ELISA analysis. Human and monkey IFN-β protein concentration was measured using human IFN-β Quantikine ELISA Kits (R&D Systems) per manufacture’s protocol. Mouse IFN-β was measured using mouse IFN-β Quantikine ELISA Kits (R&D Systems) per manufacture’s protocol. Mouse TNFα, IFN-β and IL-6 in the tumor lysates and plasma was measured by Quantikine ELISA Kits (R&D Systems) per manufacture’s protocol.
Female C57BL/6 mice, aged between 8 and 10 weeks old, were purchased from Charles River Lab. MC38 mouse colorectal cancer cells were resuspended as single cell solution in PBS at a concentration of 5 × 10^6 cells/ml. One hundred µl of cell suspension were implanted in the right flank of mice subcutaneously. Tumor size was measured by a caliper in three dimensions and its volume was then calculated according to the following formula: Tumor Volume (mm^3) = l * w * h * 0.5236, where l = length, w = width and h = height in mm for a tumor. When the average tumor volume reached around 100 mm^3, the mice were randomly assigned into three groups (n = 8) and each group of mice received one regimen. This day was assigned as day 0 for the study. […] Tumor volume and body weight were measured 3 times per week throughout the study. […] Cytokines and SHR1032 concentration in the plasma and tumor tissues were analyzed. […]

MV4-11 cells [2] = assay: CellTiter-Glo cell growth; type: cell-based; conditions: Homo sapiens; MV4-11, CellTiter Glo
Method: (§2) (a–d) AML cells were treated with STING agonists and standard of care cytarabine, and cell viability was measured by CellTiter Glo in (a) THP1-STING-R232, (b) THP1-STING-KO, (c) MV-4-11 and (d) MOLM-16. (e) MV-4-11, MOLM-16 and THP1-STING-KO cells were stimulated with 1 µM of SHR1032 for the indicated time points. The amount of pTBK1, total TBK1, pSTING, total STING and α-tubulin was measured by Western blot. pSTING phosphorylated STING. THP1 reporter cells were treated for 24 h with a total of 100 k cells and 150 ul media in each well a 96-well plate. Following the incubation, 20 µl of supernatant was transferred to an opaque 96 well ½ area plate and incubated for 30 s with 50 µl of QUANTI-Luc substrate (InvivoGen) per manufacturer’s instructions. Luminescence signal was measured using Tecan infinite M1000. EC50 values were calculated using non-linear regression analysis of GraphPad Prism. Cell growth was monitored by CellTiter-Glo Luminescent Cell Viability Assay (Promega) per manufacture’s protocol. GI50 values were calculated using non-linear regression analysis of GraphPad Prism. Cell lysates for western blotting were made in RIPA buffer (Sigma) with Halt Protease and Phosphatase Inhibitors (Thermo Scientific). Antibodies against pSTING, TBK1, pTBK1 and tubulin were purchased from Cell Signaling Technologies, and anti-STING was purchased from Protein Tech.

MOLM-16 cells [3] = assay: CellTiter-Glo cell growth; type: cell-based; conditions: Homo sapiens, MOLM16; MOLM-16, CellTiter Glo
Method: as §2

MV4-11 cells [4] = assay: IFNβ ELISA; type: cell-based, human; conditions: MV4-11, 5 hrs, compared to THP1 cells
Method: as §1
(§3) Figure S2. IFNβ measurement in MV4-11, MOLM-16 and THP1-STING-R232 cells treated with SHR1032 for 5 hrs.

MOLM-16 cells [5] = assay: IFNβ ELISA; type: cell-based, human; conditions: MOLM-16, 5 hrs, compared to THP1 cells
Method: as §1, §3

THP1-STING-KO cells = assay: CellTiter-Glo cell growth; type: cell-based, human
Method: as §2

THP1-STING-R232 cells = assay: CellTiter-Glo cell growth; type: cell-based, human; conditions: Homo sapiens
Method: as §2

- GI50 (MV4-11 cells [2]): 1 nM
- GI50 (MOLM-16 cells [3]): 2.6 nM
- GI50 (THP1-STING-R232 cells): 23 nM
SMILES: CCn1nc(C)cc1C(=O)Nc1nc2cc(C(N)=O)cc(OC)c2n1CCC[C@H]1COc2cc(C(N)=O)cc3nc(NC(=O)c4cc(C)nn4CC)n1c23 [SHR1032]
- tumor growth inhibition ([1]; 100 µg intratumorally on day 1, 5, 8 and 12, compared to the control group): 78%
- mouse pharmacokinetic properties ([1]; intratumoral, mouse): favorable mouse pharmacokinetic properties
- IFNβ, IL-6 and TNFα induction in tumor and plasma ([1]; one IT dose of 100 µg, 4 h post dosing, ELISA): induced all the three cytokines in both tumors and plasma
- IFNβ production (MV4-11 cells [4]): produced IFNβ, but with a level much lower than that in THP1 cells
- IFNβ production (MOLM-16 cells [5]): produced IFNβ, but with a level much lower than that in THP1 cells
- cell growth inhibition (THP1-STING-KO cells): not detectable
